Measurements reported in PubChem BioAssay AID248 (DTP/NCI, 2004).
Inconclusive results and toxic doses are left out. Rule as the data show it: active = T/C of 150% or more; inactive = T/C below 125%.

System: L1210 leukemia ip in BDF1 mice, survival T/C
Assay: NCI In Vivo Anticancer Drug Screen. Data for tumor model L1210 Leukemia (intraperitoneal) in B6D2F1 (BDF1) mice
Settings: endpoint: mean survival time, higher = longer survival
In short: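 Transplanted-tumor mice were given test agent; controls received vehicle only. Survival readings from the two groups were divided (treated over control).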

Measured: T/C

COc1ccccc1[P+](CO)(c1ccccc1OC)c1ccccc1OC
inactive: dose: 100.0 mg/kg/injection, schedule: Q01DX009 (ip), vehicle: saline 97 % of control | dose: 100.0 mg/kg/injection, schedule: Q04DX003 (ip), vehicle: saline 103 % of control | dose: 200.0 mg/kg/injection, schedule: Q01DX009 (ip), vehicle: saline 92 % of control | dose: 200.0 mg/kg/injection, schedule: Q04DX003 (ip), vehicle: saline 97 % of control | dose: 400.0 mg/kg/injection, schedule: Q01DX009 (ip), vehicle: saline 93 % of control | dose: 400.0 mg/kg/injection, schedule: Q04DX003 (ip), vehicle: saline 97 % of control

CCCCCCCCCCCCOCCCCCCCCCCCC
inactive: dose: 100.0 mg/kg/injection, schedule: Q01DX009 (sc), vehicle: olive oil, sesame oil, peanut oil 104 % of control | dose: 100.0 mg/kg/injection, schedule: Q04DX003 (sc), vehicle: olive oil, sesame oil, peanut oil 114 % of control | dose: 200.0 mg/kg/injection, schedule: Q01DX009 (sc), vehicle: olive oil, sesame oil, peanut oil 100 % of control | dose: 200.0 mg/kg/injection, schedule: Q04DX003 (sc), vehicle: olive oil, sesame oil, peanut oil 106 % of control | dose: 400.0 mg/kg/injection, schedule: Q01DX009 (sc), vehicle: olive oil, sesame oil, peanut oil 102 % of control | dose: 400.0 mg/kg/injection, schedule: Q04DX003 (sc), vehicle: olive oil, sesame oil, peanut oil 104 % of control
